Results as given in PMC5471438, “Linaclotide activates guanylate cyclase‐C/cGMP/protein kinase‐II‐dependent trafficking of CFTR in the intestine” (Physiological Reports, 2017).
“Also recorded” adds a separate entry of the source.

Legend:
GC‐C/cGMP pathway = settings: modulated by MRP4; ref Tchernychev et al. 2015; cited from earlier work
Excerpt: The cystic fibrosis transmembrane conductance regulator (CFTR) is a cyclic adenosine monophosphate (cAMP) and cGMP‐regulated anion‐selective channel that is expressed on the apical domain of intestinal epithelial cells where it serves as the main conductive pathway for Cl^− and HCO3 ^− ions transported across the membrane into the lumen (Riordan et al. 1989; Anderson et al. 1991; Vaandrager et al. 1997).

GC‐C = settings: ref Bryant et al. 2010; Busby et al. 2010; cited from earlier work
Excerpt: The synthetic GC‐C agonist peptide, linaclotide, is an FDA‐approved drug for adult patients with Irritable Bowel Syndrome with Constipation (IBS‐C) and Chronic Idiopathic Constipation (CIC) (Bryant et al. 2010; Busby et al. 2010). IBS‐C is a highly prevalent, chronic functional gastrointestinal disorder with a global prevalence estimated to range from 5% to 20% (Mayer 2008; Quigley et al. 2012).

T84 cells = assay: cGMP synthesis in T84 cells; format: cell-based, human
CFTR = assay: Surface biotinylation of CFTR in T84 cells; format: cell-based, human; settings: linaclotide 1 μmol/L and 3.27 μmol/L, 30 min
cGKII (PKGII) = assay: VASP Ser239 phosphorylation in T84 cells, Western blot; format: cell-based, human; settings: linaclotide 1 and 3.27 μmol/L, 30 min, 8Br‐cGMP 0.2 and 1 mmol/L positive control
Experimental: C2BBe or T84 cells were homogenized in TGH lysis buffer [25 mmol/L HEPES, 10% (vol/vol) glycerol, 1% (vol/vol) Triton‐ × 100, pH 7.4] containing protease inhibitors (10 nmol/L iodoacetamide, 1 mmol/L phenylmethylsulfonyl fluoride (PMSF), 2 μg/mL leupeptin) for 30 min on ice. Homogenates were solubilized, subject to centrifugation at 13,200 g for 15 min at 4°C, and cleared supernatants were recovered. Protein concentration of the supernatant was determined with Coomassie Protein Assay Reagent (Pierce) and samples prepared and analyzed as described (Kravtsov et al. 2016). Quantification of surface‐labeled proteins was performed with Quantity One image analysis software.
VASP was originally characterized as a substrate for both PKG (cGMP‐dependent kinase) and PKA (cAMP‐dependent kinase). […] To determine linaclotide‐induced activation of cGKII, we determined the phosphorylation of VASP^Ser239 30 min following treatment either with vehicle or linaclotide (1 μmol/L and 3.27 μmol/L; the 3.27 μmol/L concentration is equivalent to the 5 μg dose of linaclotide that was used in vivo in the rat jejunum loop). The membrane permeant cGMP analog, 8 Br‐cGMP (0.2 mmol/L, 1 mmol/L), was used as a positive control.

linaclotide
transepithelial electrolyte secretion (GC‐C/cGMP pathway): increased transepithelial electrolyte secretion across the mucosa | fluid secretion (GC‐C): increased fluid secretion | intestinal transit (GC‐C): accelerated intestinal transit | EC80 for cGMP synthesis (approximate) (T84 cells): ~1000 nM | EC100 for cGMP synthesis (approximate) (T84 cells): ~3 µmol/L | EC50 (T84 cells; IBMX 1 mmol/L 10 min, linaclotide 0.001–10 μmol/L 30 min, 37°C, pH 7, cGMP in supernatants by LC/MS/MS, n = 4): 772 nM | cGMP synthesis (T84 cells; linaclotide 0.001–10 μmol/L, 30 min, IBMX 1 mmol/L): concentration dependently stimulated cGMP synthesis | CFTR recruitment to cell surface (CFTR): increased cell surface CFTR levels; also recorded: robust recruitment of CFTR to the apical surface; also recorded: robust increase in surface levels of CFTR compared to untreated control cells | phosphorylation of VASP Ser239 (cGKII (PKGII)): more robust phosphorylation of VASP^Ser239 compared to 8Br‐cGMP; also recorded: higher levels of VASP^Ser239 phosphorylation compared to the lower concentration | phosphorylation of VASP Ser239 (cGKII (PKGII); listed as Linaclotide): more strongly enhanced phosphorylation of VASP^Ser239 compared to the cGMP analog 8‐Br‐cGMP
